# Activity calls are given as the source filed them. The calls are words filed in the database; no cut-off is given here.
# Experiments:
# [1] = Antiproliferative activity against human IN1528 cells after 72 hrs by SRB method; type: functional, cell-based; conditions: IN1528, 72 h
# [2] = Antiproliferative activity against human IN1760 cells after 72 hrs by SRB method; type: functional, cell-based; conditions: IN1760, 72 h
# [3] = Antiproliferative activity against human IN1472 cells after 72 hrs by SRB method; type: functional, cell-based; conditions: IN1472, 72 h
# [4] = Antiproliferative activity against human U251MG cells after 72 hrs by SRB method; type: functional, cell-based; conditions: U-251, 72 h
# IN1528 [5] = test: Induction of membrane disruption in human IN1528 cells assessed as dye uptake at 200 to 500 uM by trypan blue exclusion assay; type: functional, cell-based
# IN1760 [6] = test: Induction of membrane disruption in human IN1760 cells assessed as dye uptake at 200 to 500 uM by trypan blue exclusion assay; type: functional, cell-based
# IN1472 [7] = test: Induction of membrane disruption in human IN1472 cells assessed as dye uptake at 200 to 500 uM by trypan blue exclusion assay; type: functional, cell-based
# U-251 [8] = test: Induction of membrane disruption in human U251MG cells assessed as dye uptake at 200 to 500 uM by trypan blue exclusion assay; type: functional, cell-based
# IN1528 [9] = test: Induction of membrane disruption in human IN1528 cells assessed as cell structure disruption at 1000 uM by trypan blue exclusion assay; type: functional, cell-based
# IN1760 [10] = test: Induction of membrane disruption in human IN1760 cells assessed as cell structure disruption at 1000 uM by trypan blue exclusion assay; type: functional, cell-based
# IN1472 [11] = test: Induction of membrane disruption in human IN1472 cells assessed as cell structure disruption at 1000 uM by trypan blue exclusion assay; type: functional, cell-based
# U-251 [12] = test: Induction of membrane disruption in human U251MG cells assessed as cell structure disruption at 1000 uM by trypan blue exclusion assay; type: functional, cell-based
# [13] = Induction of membrane disruption using DMPG lipid vesicles at 187.5 uM; type: functional
# [14] = Induction of membrane disruption using DMPE lipid vesicles at 187.5 uM; type: functional
# [15] = Induction of membrane disruption using DMPS lipid vesicles at 187.5 uM; type: functional
# [16] = Induction of membrane disruption using DMPC lipid vesicles at 187.5 uM; type: functional
smiles,measurement,setting,value
CCCCCCCC[n+]1ccc(C(=O)N(C)c2cc[n+](CCCCCCCC)cc2)cc1,EC50,[1],9.8 µM
same,EC50,[2],19.5 µM
same,EC50,[3],78 µM
same,EC50,[4],312 µM
same,Activity,IN1528 [5],Active
same,Activity,IN1760 [6],Active
same,Activity,IN1472 [7],Active
same,Activity,U-251 [8],Active
same,Activity,IN1528 [9],Active
same,Activity,IN1760 [10],Active
same,Activity,IN1472 [11],Active
same,Activity,U-251 [12],Active
same,Activity,[13],44.2%
same,Activity,[14],77.7%
same,Activity,[15],64.6%
same,Activity,[16],38.8%
CN(C(=O)c1ccncc1)c1ccncc1,Activity,[13],30%
same,Activity,[14],34.9%
same,Activity,[15],23.3%
same,Activity,[16],34.1%
CCCCCCCCc1ccc(C(=O)N(C)c2ccc(CCCCCCCC)cc2)cc1,Activity,[13],16.6%
same,Activity,[14],34.7%
same,Activity,[15],27.2%
same,Activity,[16],27.3%
